The values that follow are results of earlier work, collected in patent US20260263463A1, “FORMULATIONS OF DANICOPAN AND METHODS OF USE THEREOF” (Alexion Pharmaceuticals, Inc., priority 2023, published 2026).

The conditions of this data set: doses of up to 1,600 mg; cited from earlier work.

`CC(=O)c1nn(CC(=O)N2C[C@H](F)C[C@H]2C(=O)Nc2cccc(Br)n2)c2ccc(-c3cnc(C)nc3)cc12` [Danicopan, danicopan]: the adverse effects result is on record as “no adverse effects”.
